We go through 10 compounds from ChEMBL document CHEMBL3856233, “Identification of (R)-(2-Chloro-3-(trifluoromethyl)phenyl)(1-(5-fluoropyridin-2-yl)-4-methyl-6,7-dihydro-1H-imidazo[4,5-c]pyridin-5(4H)-yl)methanone (JNJ 54166060), a Small Molecule Antagonist of the P2X7 receptor” (J Med Chem, 2016).

In brackets after ≈: the same amount, converted by molar mass.

Data set [1] deals with T1, P2X purinoceptor 7 (Homo sapiens, UniProt Q99572).
T1 sequence (Q99572 whole entry): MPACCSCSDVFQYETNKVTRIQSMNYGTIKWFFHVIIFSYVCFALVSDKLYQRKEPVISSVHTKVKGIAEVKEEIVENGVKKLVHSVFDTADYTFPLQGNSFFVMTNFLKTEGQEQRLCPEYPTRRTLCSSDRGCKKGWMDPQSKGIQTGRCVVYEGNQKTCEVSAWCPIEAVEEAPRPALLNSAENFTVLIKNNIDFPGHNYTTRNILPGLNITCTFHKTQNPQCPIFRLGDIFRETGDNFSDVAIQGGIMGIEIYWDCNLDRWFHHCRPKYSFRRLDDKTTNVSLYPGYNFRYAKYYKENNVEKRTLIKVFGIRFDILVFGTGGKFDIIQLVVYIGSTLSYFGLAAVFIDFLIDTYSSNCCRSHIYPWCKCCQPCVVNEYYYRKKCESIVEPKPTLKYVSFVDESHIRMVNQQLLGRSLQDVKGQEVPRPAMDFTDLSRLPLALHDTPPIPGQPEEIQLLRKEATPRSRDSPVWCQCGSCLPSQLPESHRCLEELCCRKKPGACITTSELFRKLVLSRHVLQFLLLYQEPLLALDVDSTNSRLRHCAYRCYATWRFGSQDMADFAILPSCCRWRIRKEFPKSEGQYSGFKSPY
Kind of data set: Antagonist activity at recombinant human P2X7 receptor expressed in human 1321N1 cells assessed as inhibition of Bz-ATP-induced Ca2+ flux preincubated for 30 mins followed by agonist addition measured after 180 sec by calcium-4 dye based FLIPR assay. The format is cell-based. (In general: Calcium flux is commonly read through the fluorescence of an indicator in the cells.)

Data set [2] deals with T2, CYP3A4 (Homo sapiens, UniProt P08684). Kind of data set: Inhibition of CYP3A4 in human liver microsomes using midazolam as substrate assessed as reduction in 1-OH-midazolam formation at 0.01 uM by LC/MS/MS analysis. To be noted: probe midazolam. (In general: Microsomes from liver hold many membrane-bound enzymes, among them those of drug oxidation.)
The target of data set [3] is T2, CYP3A4. Kind of data set: Inhibition of CYP3A4 in human liver microsomes using midazolam as substrate assessed as reduction in 1-OH-midazolam formation at 0.02 uM by LC/MS/MS analysis. To be noted: probe midazolam.
In data set [4] the target is T2, CYP3A4. Kind of data set: Inhibition of CYP3A4 in human liver microsomes using midazolam as substrate assessed as reduction in 4-OH-midazolam formation at 0.01 uM by LC/MS/MS analysis. The following applies: probe midazolam.
Data set [5] addresses T2, CYP3A4. Kind of data set: Inhibition of CYP3A4 in human liver microsomes using midazolam as substrate assessed as reduction in 4-OH-midazolam formation at 0.02 uM by LC/MS/MS analysis. To be noted: probe midazolam.
Data set [6] is described as follows: in vitro. To be noted: rat, liver microsomes.
Description: Extraction ratio in rat liver microsomes at 1 uM upto 60 mins in presence of NDPH by LC/MS/MS analysis
Data set [7] is described as follows: in vitro. To be noted: human, liver microsomes.
Description: Extraction ratio in human liver microsomes at 1 uM upto 60 mins in presence of NDPH by LC/MS/MS analysis
The target in data set [8] is T3, P2X purinoceptor 7 (Rattus norvegicus, UniProt Q64663).
T3 sequence (Q64663 whole entry): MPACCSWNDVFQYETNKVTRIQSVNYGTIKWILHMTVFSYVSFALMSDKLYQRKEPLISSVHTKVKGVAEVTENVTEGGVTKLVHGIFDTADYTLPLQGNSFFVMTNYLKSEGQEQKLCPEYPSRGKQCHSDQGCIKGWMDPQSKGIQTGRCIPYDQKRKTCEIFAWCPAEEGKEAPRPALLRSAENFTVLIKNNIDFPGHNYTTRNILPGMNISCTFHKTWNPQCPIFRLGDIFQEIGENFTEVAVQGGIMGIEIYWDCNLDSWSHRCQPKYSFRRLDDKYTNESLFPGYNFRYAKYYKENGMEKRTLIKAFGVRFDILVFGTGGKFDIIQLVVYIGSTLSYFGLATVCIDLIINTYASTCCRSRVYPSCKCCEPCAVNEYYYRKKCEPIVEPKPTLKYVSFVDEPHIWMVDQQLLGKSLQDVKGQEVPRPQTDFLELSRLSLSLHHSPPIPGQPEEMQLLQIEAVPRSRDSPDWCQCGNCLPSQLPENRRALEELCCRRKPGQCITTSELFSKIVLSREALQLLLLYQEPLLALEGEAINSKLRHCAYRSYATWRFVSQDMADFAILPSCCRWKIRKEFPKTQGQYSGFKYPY
Kind of data set: Antagonist activity at recombinant rat P2X7 receptor expressed in human 1321N1 cells assessed as inhibition of Bz-ATP-induced Ca2+ flux preincubated for 30 mins followed by agonist addition measured after 180 sec by calcium-4 dye based FLIPR assay. Format: cell-based.

Data set [9] in a line: Solubility of the compound in phosphate buffer at pH 7 at room temperature after 3 days.
The target of data set [10] is T4, P2X purinoceptor 7 (Mus musculus, UniProt Q9Z1M0).
T4 sequence (Q9Z1M0 whole entry): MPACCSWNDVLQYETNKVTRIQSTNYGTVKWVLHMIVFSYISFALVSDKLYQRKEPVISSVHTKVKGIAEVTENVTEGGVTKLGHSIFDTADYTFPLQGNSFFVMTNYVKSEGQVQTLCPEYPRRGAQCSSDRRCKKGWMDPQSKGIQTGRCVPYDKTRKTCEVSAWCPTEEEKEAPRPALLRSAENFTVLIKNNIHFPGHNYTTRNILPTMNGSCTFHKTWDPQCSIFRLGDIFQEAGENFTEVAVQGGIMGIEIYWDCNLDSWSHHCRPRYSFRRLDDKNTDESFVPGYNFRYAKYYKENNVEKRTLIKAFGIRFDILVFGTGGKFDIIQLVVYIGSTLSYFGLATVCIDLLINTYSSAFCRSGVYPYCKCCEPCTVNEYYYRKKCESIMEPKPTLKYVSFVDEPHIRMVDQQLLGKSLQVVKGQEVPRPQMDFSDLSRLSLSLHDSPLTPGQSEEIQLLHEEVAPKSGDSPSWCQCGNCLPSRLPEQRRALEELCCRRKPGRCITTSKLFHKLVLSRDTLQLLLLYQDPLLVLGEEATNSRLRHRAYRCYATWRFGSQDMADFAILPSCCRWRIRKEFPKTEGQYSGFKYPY
Kind of data set: Antagonist activity at recombinant mouse P2X7 receptor expressed in human 1321N1 cells assessed as inhibition of Bz-ATP-induced Ca2+ flux preincubated for 30 mins followed by agonist addition measured after 180 sec by calcium-4 dye based FLIPR assay. Format: cell-based.

Data set [11] is described as follows: Solubility of compound in phosphate buffer at pH 2 at room temperature after 3 days.
Data set [12] can be described thus: Protein binding in human plasma at 1 uM after 6 hrs by LC/MS/MS based equilibrium dialysis method. Format: ADME, cell-free. The following applies: read-out: PPB (converted).
A short description of data set [13]: Protein binding in rat plasma at 1 uM after 6 hrs by LC/MS/MS based equilibrium dialysis method. Format: ADME, cell-free. To be noted: read-out: PPB (converted).
Another data set concerns the target Cytochrome P450 2D6 (Homo sapiens, UniProt P10635). Kind of data set: Inhibition of CYP2D6 in human liver microsomes using dextromethorphan as substrate after 15 mins by LC/MS/MS analysis. Format: ADME.
The target in a further data set is Cytochrome P450 2C19 (Homo sapiens, UniProt P33261). Kind of data set: Inhibition of CYP2C19 in human liver microsomes using S-mephenytoin as substrate after 15 mins by LC/MS/MS analysis. Format: ADME.
The target of a further data set is T5, Cytochrome P450 1A2 (Homo sapiens, UniProt P05177).
T5 sequence (P05177 whole entry): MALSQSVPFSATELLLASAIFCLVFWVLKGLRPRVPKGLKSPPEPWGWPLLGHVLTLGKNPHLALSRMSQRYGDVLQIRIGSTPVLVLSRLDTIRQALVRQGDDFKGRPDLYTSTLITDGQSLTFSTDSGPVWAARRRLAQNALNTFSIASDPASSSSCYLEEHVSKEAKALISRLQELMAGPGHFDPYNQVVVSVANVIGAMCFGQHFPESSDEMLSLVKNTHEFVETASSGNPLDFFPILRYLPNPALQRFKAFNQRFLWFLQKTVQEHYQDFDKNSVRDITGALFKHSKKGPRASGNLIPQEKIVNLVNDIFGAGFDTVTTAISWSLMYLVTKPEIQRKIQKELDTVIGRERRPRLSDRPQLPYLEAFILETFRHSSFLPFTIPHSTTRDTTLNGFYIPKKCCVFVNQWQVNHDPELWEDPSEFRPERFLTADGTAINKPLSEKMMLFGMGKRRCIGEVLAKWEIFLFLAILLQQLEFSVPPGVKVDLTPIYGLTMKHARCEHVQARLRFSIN
Kind of data set: Inhibition of CYP1A2 in human liver microsomes using phenacetin as substrate after 15 mins by LC/MS/MS analysis. The format is ADME.

For another data set, the target named is Cytochrome P450 2C9 (Homo sapiens, UniProt P11712). Kind of data set: Inhibition of CYP2C9 in human liver microsomes using diclofenac as substrate after 15 mins by LC/MS/MS analysis. Format: ADME.
A further data set deals with T6, Cytochrome P450 2C8 (Homo sapiens, UniProt P10632).
T6 sequence (P10632 whole entry): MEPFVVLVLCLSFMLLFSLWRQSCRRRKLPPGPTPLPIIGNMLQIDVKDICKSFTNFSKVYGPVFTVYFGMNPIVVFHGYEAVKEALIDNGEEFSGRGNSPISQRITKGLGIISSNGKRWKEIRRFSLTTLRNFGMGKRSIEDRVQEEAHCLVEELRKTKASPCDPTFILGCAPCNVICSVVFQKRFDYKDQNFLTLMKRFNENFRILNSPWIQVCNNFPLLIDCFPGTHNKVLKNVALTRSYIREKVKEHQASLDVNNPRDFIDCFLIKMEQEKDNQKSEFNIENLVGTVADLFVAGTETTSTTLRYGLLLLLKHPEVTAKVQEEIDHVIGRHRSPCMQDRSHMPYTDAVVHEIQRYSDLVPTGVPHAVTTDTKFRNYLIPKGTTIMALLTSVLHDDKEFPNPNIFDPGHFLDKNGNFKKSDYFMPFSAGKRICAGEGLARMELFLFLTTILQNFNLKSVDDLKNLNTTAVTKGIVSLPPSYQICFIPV
Kind of data set: Inhibition of CYP2C8 in human liver microsomes using paclitaxel as substrate after 15 mins by LC/MS/MS analysis. Format: ADME.

For data set [14], the target named is Voltage-gated inwardly rectifying potassium channel KCNH2 (Homo sapiens, UniProt Q12809). Kind of data set: Displacement of [3H]astemizole from human ERG expressed in HEK293 cells by competitive binding assay. The format is cell-based.
Voltage-gated inwardly rectifying potassium channel KCNH2, sequence (Q12809 whole entry): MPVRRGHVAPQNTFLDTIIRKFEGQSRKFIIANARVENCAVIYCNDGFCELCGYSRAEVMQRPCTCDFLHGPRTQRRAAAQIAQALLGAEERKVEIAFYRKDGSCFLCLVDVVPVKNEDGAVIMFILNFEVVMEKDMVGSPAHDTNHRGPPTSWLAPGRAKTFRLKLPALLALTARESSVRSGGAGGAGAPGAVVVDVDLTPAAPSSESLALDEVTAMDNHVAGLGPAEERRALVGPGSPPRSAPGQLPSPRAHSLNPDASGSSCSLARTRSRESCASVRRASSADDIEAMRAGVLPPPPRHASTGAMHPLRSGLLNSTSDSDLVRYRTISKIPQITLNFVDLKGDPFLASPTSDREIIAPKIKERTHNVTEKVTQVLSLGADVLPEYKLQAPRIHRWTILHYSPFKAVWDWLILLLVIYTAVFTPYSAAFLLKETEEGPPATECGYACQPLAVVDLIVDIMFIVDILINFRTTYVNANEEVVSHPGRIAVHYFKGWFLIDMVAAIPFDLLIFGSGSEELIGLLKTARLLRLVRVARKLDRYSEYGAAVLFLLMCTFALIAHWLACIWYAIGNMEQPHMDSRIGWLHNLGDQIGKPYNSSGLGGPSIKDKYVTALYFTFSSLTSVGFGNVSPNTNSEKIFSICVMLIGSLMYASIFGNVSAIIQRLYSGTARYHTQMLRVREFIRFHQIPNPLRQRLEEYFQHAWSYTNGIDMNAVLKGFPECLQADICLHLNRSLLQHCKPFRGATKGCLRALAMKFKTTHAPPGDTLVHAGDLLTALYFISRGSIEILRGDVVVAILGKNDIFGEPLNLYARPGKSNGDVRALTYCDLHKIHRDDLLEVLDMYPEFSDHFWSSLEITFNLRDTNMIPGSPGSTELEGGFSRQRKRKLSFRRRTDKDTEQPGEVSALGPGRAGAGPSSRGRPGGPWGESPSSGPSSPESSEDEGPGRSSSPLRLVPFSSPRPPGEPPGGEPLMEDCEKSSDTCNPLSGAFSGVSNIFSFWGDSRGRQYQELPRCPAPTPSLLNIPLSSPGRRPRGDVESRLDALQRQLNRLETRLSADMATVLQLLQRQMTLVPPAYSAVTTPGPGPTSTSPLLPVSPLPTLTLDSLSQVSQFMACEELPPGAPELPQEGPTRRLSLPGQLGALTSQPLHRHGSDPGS

T2 sequence (P08684 whole entry): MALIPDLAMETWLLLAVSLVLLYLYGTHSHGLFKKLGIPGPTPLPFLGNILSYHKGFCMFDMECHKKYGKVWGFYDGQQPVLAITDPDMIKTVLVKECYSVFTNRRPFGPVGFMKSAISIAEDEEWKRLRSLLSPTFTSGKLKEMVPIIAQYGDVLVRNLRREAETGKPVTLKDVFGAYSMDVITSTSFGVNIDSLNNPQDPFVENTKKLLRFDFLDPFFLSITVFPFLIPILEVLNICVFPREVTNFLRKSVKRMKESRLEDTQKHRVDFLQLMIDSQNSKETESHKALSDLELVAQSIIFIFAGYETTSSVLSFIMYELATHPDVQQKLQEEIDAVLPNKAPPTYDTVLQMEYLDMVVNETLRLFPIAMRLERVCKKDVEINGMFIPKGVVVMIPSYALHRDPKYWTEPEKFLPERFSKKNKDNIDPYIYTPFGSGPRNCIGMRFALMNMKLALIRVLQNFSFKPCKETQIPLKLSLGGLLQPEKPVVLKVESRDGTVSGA
Cytochrome P450 2C19, sequence (P33261 whole entry): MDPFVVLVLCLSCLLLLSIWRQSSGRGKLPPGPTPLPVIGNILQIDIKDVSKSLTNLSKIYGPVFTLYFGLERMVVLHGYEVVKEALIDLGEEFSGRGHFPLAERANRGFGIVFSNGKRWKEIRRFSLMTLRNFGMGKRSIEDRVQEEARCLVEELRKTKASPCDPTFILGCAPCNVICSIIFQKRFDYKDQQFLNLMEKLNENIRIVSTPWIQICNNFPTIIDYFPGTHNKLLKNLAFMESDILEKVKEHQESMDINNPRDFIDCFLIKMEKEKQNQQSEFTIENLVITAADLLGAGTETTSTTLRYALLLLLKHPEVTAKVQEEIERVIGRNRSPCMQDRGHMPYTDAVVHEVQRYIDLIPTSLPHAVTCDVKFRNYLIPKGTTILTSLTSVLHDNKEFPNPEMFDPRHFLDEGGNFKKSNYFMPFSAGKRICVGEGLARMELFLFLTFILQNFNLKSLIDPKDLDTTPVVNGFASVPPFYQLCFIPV
Cytochrome P450 2D6, sequence (P10635 whole entry): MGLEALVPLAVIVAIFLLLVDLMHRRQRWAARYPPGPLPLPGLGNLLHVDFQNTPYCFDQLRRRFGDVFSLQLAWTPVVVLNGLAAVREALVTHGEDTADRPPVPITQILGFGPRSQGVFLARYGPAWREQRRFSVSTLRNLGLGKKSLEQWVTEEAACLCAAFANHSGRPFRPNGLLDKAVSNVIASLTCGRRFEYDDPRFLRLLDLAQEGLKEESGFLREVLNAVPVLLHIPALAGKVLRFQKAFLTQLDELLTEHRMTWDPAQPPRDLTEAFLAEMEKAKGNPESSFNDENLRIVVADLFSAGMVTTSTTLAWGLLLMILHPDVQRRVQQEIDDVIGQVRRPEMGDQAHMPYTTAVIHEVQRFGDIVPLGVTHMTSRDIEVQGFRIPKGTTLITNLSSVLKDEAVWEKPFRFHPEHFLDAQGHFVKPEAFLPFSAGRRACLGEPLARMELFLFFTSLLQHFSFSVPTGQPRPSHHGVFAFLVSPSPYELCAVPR
Cytochrome P450 2C9, sequence (P11712 whole entry): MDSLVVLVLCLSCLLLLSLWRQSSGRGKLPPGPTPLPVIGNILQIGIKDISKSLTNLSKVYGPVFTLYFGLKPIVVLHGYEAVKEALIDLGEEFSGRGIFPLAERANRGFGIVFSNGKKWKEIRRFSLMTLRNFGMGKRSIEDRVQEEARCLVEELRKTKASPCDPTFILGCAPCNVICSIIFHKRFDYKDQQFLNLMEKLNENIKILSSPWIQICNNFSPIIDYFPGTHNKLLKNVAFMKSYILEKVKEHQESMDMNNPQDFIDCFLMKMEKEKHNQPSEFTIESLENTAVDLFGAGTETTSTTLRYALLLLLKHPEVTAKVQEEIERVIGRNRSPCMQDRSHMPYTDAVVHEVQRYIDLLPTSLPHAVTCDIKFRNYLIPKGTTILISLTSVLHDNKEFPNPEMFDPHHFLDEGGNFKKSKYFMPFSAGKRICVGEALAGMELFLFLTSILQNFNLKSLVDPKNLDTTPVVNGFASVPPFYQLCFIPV

On to `O=C(c1cccc(C(F)(F)F)c1Cl)N1CCc2c(ncn2-c2ccccn2)C1`, for which, on P2X purinoceptor 7 [1], the 50% inhibitory concentration (IC50) (in general, the concentration that inhibits the measured activity by half) is 4 nM.
For the compound `CC(=O)N1CCN(c2ccc(OCC3COC(Cn4ccnc4)(c4ccc(Cl)cc4Cl)O3)cc2)CC1` (configuration not stated) [KETOCONAZOLE], the inhibition (commonly the change of the read-out against control, counted positive when it falls) at 0.01 µM came out at 53% on CYP3A4 [2] and 57% at CYP3A4 [4]. Moreover, the inhibition at 0.02 µM on CYP3A4 [3] was found to be 70%; at CYP3A4 [5] it was 74%.
For the compound `O=C(c1cccc(C(F)(F)F)c1Cl)N1CCc2c(ncn2-c2cnccn2)C1`, the 50% inhibitory concentration (IC50) on P2X purinoceptor 7 [1] was determined as 9 nM.
For `O=C(c1cccc(C(F)(F)F)c1Cl)N1CCc2c(ncn2-c2ccccc2)C1`, the hepatic extraction ratio at 1 h, 1 µM in “in vitro [6]” came out at 0.89; in the data set “in vitro [7]”, 0.94.
Consider `CC1c2ncn(-c3cnccn3)c2CCN1C(=O)c1cccc(C(F)(F)F)c1Cl` (configuration not stated), for which the IC50 at P2X purinoceptor 7 [1] was determined as 77 nM; on P2X purinoceptor 7 [8], 1230 nM. Moreover, the hepatic extraction ratio at 1 h, 1 µM in “in vitro [6]” was 0.84; in the data set “in vitro [7]”, 0.77.
For `CC1c2ncn(-c3ncccc3F)c2CCN1C(=O)c1cccc(C(F)(F)F)c1Cl` (configuration not stated), the concentration for half-maximal inhibition (IC50) at P2X purinoceptor 7 [1] came out at 9 nM.
Regarding `C[C@@H]1c2ncn(-c3ccc(F)cc3)c2CCN1C(=O)c1cccc(C(F)(F)F)c1Cl`, the solubility (commonly the concentration that dissolves in the medium under given conditions) at 72 h in [9] was determined as 14 µM (≈ 6.13 µg/mL); in data set [11], 165 µM (≈ 72.2 µg/mL). In addition, the IC50 at P2X purinoceptor 7 [10] turned out to be 45 nM. Moreover, the fraction unbound at 6 h, 1 µM in data set [12] is 0.04; in data set [13], 0.025.
Take `C[C@@H]1c2ncn(-c3ccccn3)c2CCN1C(=O)c1cccc(C(F)(F)F)c1Cl`: the IC50 against Cytochrome P450 2D6 was > 10000 nM; at Cytochrome P450 2C19, > 10000 nM; against Cytochrome P450 1A2, > 10000 nM; on P2X purinoceptor 7 [10] it was 20 nM; at Cytochrome P450 2C9, > 10000 nM; against Cytochrome P450 2C8, > 10000 nM. Moreover, the IC50 in data set [14] was > 10000 nM. The solubility at 72 h in [9] is 20 µM (≈ 8.42 µg/mL); in [11], > 400 µM. In addition, the fraction unbound at 6 h, 1 µM was 0.047 in data set [12] and 0.026 in data set [13].
With `C[C@@H]1c2ncn(-c3ncc(F)cn3)c2CCN1C(=O)c1cccc(C(F)(F)F)c1Cl`, the solubility at 72 h in data set [9] is 4 µM (≈ 1.76 µg/mL); in data set [11] it was > 400 µM. Further, the half-inhibitory concentration (IC50) was 7800 nM against Cytochrome P450 2C19, 38 nM at P2X purinoceptor 7 [10] and > 10000 nM in [14]. In addition, the fraction unbound at 6 h, 1 µM is 0.048 in [12] and 0.038 in data set [13].
As to `O=C(c1cccc(C(F)(F)F)c1F)N1CCc2c(ncn2-c2ccc(F)cn2)C1`, on P2X purinoceptor 7 [8], the IC50 is > 10000 nM.
